Among the data in PMC7407272, “Induction of Lysosome Membrane Permeabilization as a Therapeutic Strategy to Target Pancreatic Cancer Stem Cells” (Cancers, 2020) are efficacy in vivo and remaining binding values, retold here.

Experiment [1] relates to implanted invasive glioblastoma spheroids or gliobastomas PDXs. The arrangement: method as in PMID 28270132. The note with it: 100 mg/kg; cited from earlier work.
For another experiment, the target named is T1, AKT3 (Homo sapiens, UniProt Q9Y243).
T1 construct: purchased DiscoveRx KINOMEscan
Put plainly: KINOMEscan. In kind it is binding. The note with it: read-out: % Ctrl.

The target in another experiment is T2, GRK1 (Homo sapiens, UniProt Q15835).
T2 construct: purchased DiscoveRx KINOMEscan
Nature of the experiment: KINOMEscan. In kind it is binding. The note with it: read-out: % Ctrl.

For the next experiment, the target named is T3, ABL1(H396P)-P (Homo sapiens, UniProt P00519, H396P).
T3 construct: purchased DiscoveRx KINOMEscan
Put plainly: KINOMEscan. The note with it: read-out: % Ctrl. In kind it is binding.

The target in another experiment is T4, SYK (Homo sapiens, UniProt P43405).
T4 construct: purchased DiscoveRx KINOMEscan
Put plainly: KINOMEscan. In kind it is binding. The note with it: read-out: % Ctrl.

Another experiment concerns the target T5, AMPK-alpha1 (Homo sapiens, UniProt Q13131).
T5 construct: purchased DiscoveRx KINOMEscan
Nature of the experiment: KINOMEscan. The format is binding. The note with it: read-out: % Ctrl.

For the next experiment, the target named is T6, CSNK1G2 (Homo sapiens, UniProt P78368).
T6 construct: purchased DiscoveRx KINOMEscan
Nature of the experiment: KINOMEscan. In kind it is binding. Particulars: read-out: % Ctrl.

A further experiment has as its target T7, FGFR2 (Homo sapiens, UniProt P21802).
T7 construct: purchased DiscoveRx KINOMEscan
Nature of the experiment: KINOMEscan. The format is binding. The note with it: read-out: % Ctrl.

A further experiment has as its target T8, CASK (Homo sapiens, UniProt O14936).
T8 construct: purchased DiscoveRx KINOMEscan
Put plainly: KINOMEscan. The note with it: read-out: % Ctrl. In kind it is binding.

A further experiment has as its target T9, FLT3 (Homo sapiens, UniProt P36888).
T9 construct: purchased DiscoveRx KINOMEscan
Nature of the experiment: KINOMEscan. In kind it is binding. The note with it: read-out: % Ctrl.

In another experiment the target is T10, CDKL1 (Homo sapiens, UniProt Q00532).
T10 construct: purchased DiscoveRx KINOMEscan
Nature of the experiment: KINOMEscan. The format is binding. The note with it: read-out: % Ctrl.

The target of the next experiment is T11, PIKFYVE (Homo sapiens, UniProt Q9Y2I7).
T11 construct: purchased DiscoveRx KINOMEscan
Nature of the experiment: KINOMEscan. In kind it is binding. Particulars: read-out: % Ctrl.

Another experiment addresses T12, PDGFRB (Homo sapiens, UniProt P09619).
T12 construct: purchased DiscoveRx KINOMEscan
Put plainly: KINOMEscan. The format is binding. The note with it: read-out: % Ctrl.

Another experiment addresses T13, LTK (Homo sapiens, UniProt P29376).
T13 construct: purchased DiscoveRx KINOMEscan
Put plainly: KINOMEscan. Particulars: read-out: % Ctrl. The format is binding.

In another experiment the target is T14, GCN2(KD2,S808G) (Homo sapiens, UniProt Q9P2K8, S808G).
T14 construct: purchased DiscoveRx KINOMEscan
Put plainly: KINOMEscan. In kind it is binding. Particulars: read-out: % Ctrl.

The target of another experiment is T15, FGFR1 (Homo sapiens, UniProt P11362).
T15 construct: purchased DiscoveRx KINOMEscan
Nature of the experiment: KINOMEscan. The format is binding. The note with it: read-out: % Ctrl.

For another experiment, the target named is T16, ERK4 (Homo sapiens, UniProt P31152).
T16 construct: purchased DiscoveRx KINOMEscan
Nature of the experiment: KINOMEscan. The format is binding. Particulars: read-out: % Ctrl.

The target of the next experiment is T17, ALK (Homo sapiens, UniProt Q9UM73).
T17 construct: purchased DiscoveRx KINOMEscan
Put plainly: KINOMEscan. In kind it is binding. Particulars: read-out: % Ctrl.

In another experiment the target is T18, CSNK1G3 (Homo sapiens, UniProt Q9Y6M4).
T18 construct: purchased DiscoveRx KINOMEscan
Nature of the experiment: KINOMEscan. In kind it is binding. Particulars: read-out: % Ctrl.

The target in another experiment is T19, ACVR2B (Homo sapiens, UniProt Q13705).
T19 construct: purchased DiscoveRx KINOMEscan
Put plainly: KINOMEscan. The format is binding. Particulars: read-out: % Ctrl.

A further experiment addresses T20, PIK3CB (Homo sapiens, UniProt P42338).
T20 construct: purchased DiscoveRx KINOMEscan
Put plainly: KINOMEscan. In kind it is binding. The note with it: read-out: % Ctrl.

For the next experiment, the target named is T21, PDPK1 (Homo sapiens, UniProt O15530).
T21 construct: purchased DiscoveRx KINOMEscan
Nature of the experiment: KINOMEscan. In kind it is binding. Particulars: read-out: % Ctrl.

For the next experiment, the target named is T22, EPHB6 (Homo sapiens, UniProt O15197).
T22 construct: purchased DiscoveRx KINOMEscan
Put plainly: KINOMEscan. The format is binding. Particulars: read-out: % Ctrl.

The next experiment addresses T23, WEE1 (Homo sapiens, UniProt P30291).
T23 construct: purchased DiscoveRx KINOMEscan
Put plainly: KINOMEscan. The format is binding. Particulars: read-out: % Ctrl.

For the next experiment, the target named is T24, TGFBR2 (Homo sapiens, UniProt P37173).
T24 construct: purchased DiscoveRx KINOMEscan
Nature of the experiment: KINOMEscan. Particulars: read-out: % Ctrl. The format is binding.

The target of the next experiment is PIM1 (Homo sapiens, UniProt P11309). Put plainly: KINOMEscan. The format is binding. The arrangement: purchased DiscoveRx KINOMEscan. The note with it: read-out: % Ctrl.
The target in the next experiment is T25, DAPK3 (Homo sapiens, UniProt O43293).
T25 construct: purchased DiscoveRx KINOMEscan
Nature of the experiment: KINOMEscan. In kind it is binding. Particulars: read-out: % Ctrl.

The target in the next experiment is T26, ERN1 (Homo sapiens, UniProt O75460).
T26 construct: purchased DiscoveRx KINOMEscan
Nature of the experiment: KINOMEscan. The format is binding. Particulars: read-out: % Ctrl.

The next experiment deals with T27, CDC2L2 (Homo sapiens, UniProt Q9UQ88).
T27 construct: purchased DiscoveRx KINOMEscan
Put plainly: KINOMEscan. In kind it is binding. Particulars: read-out: % Ctrl.

The target in a further experiment is T28, NEK1 (Homo sapiens, UniProt Q96PY6).
T28 construct: purchased DiscoveRx KINOMEscan
Put plainly: KINOMEscan. In kind it is binding. The note with it: read-out: % Ctrl.

In a further experiment the target is T29, MAP3K2 (Homo sapiens, UniProt Q9Y2U5).
T29 construct: purchased DiscoveRx KINOMEscan
Nature of the experiment: KINOMEscan. In kind it is binding. The note with it: read-out: % Ctrl.

For a further experiment, the target named is T30, PRKCD (Homo sapiens, UniProt Q05655).
T30 construct: purchased DiscoveRx KINOMEscan
Put plainly: KINOMEscan. Particulars: read-out: % Ctrl. The format is binding.

The next experiment addresses T31, DMPK2 (Homo sapiens, UniProt Q6DT37).
T31 construct: purchased DiscoveRx KINOMEscan
Put plainly: KINOMEscan. The format is binding. The note with it: read-out: % Ctrl.

The next experiment has as its target T32, TAK1 (Homo sapiens, UniProt O43318).
T32 construct: purchased DiscoveRx KINOMEscan
Nature of the experiment: KINOMEscan. The format is binding. The note with it: read-out: % Ctrl.

Another experiment addresses T33, KIT(L576P) (Homo sapiens, UniProt P10721, L576P).
T33 construct: purchased DiscoveRx KINOMEscan
Put plainly: KINOMEscan. The format is binding. The note with it: read-out: % Ctrl.

The next experiment addresses T34, FAK (Homo sapiens, UniProt Q05397).
T34 construct: purchased DiscoveRx KINOMEscan
Put plainly: KINOMEscan. The format is binding. Particulars: read-out: % Ctrl.

In another experiment the target is T35, ERBB4 (Homo sapiens, UniProt Q15303).
T35 construct: purchased DiscoveRx KINOMEscan
Put plainly: KINOMEscan. In kind it is binding. The note with it: read-out: % Ctrl.

A further experiment deals with T36, PRKX (Homo sapiens, UniProt P51817).
T36 construct: purchased DiscoveRx KINOMEscan
Nature of the experiment: KINOMEscan. The format is binding. Particulars: read-out: % Ctrl.

The target in another experiment is T37, IKK-alpha (Homo sapiens, UniProt O15111).
T37 construct: purchased DiscoveRx KINOMEscan
Nature of the experiment: KINOMEscan. The note with it: read-out: % Ctrl. In kind it is binding.

In the next experiment the target is T38, NEK11 (Homo sapiens, UniProt Q8NG66).
T38 construct: purchased DiscoveRx KINOMEscan
Put plainly: KINOMEscan. In kind it is binding. The note with it: read-out: % Ctrl.

Another experiment addresses T39, WEE2 (Homo sapiens, UniProt P0C1S8).
T39 construct: purchased DiscoveRx KINOMEscan
Nature of the experiment: KINOMEscan. The format is binding. The note with it: read-out: % Ctrl.

Another experiment addresses T40, ABL1(Q252H)-P (Homo sapiens, UniProt P00519, Q252H).
T40 construct: purchased DiscoveRx KINOMEscan
Nature of the experiment: KINOMEscan. In kind it is binding. Particulars: read-out: % Ctrl.

The next experiment deals with T41, RSK4(KD2-C-t.) (Homo sapiens, UniProt Q9UK32).
T41 construct: RSK4(KD2-C-t.); purchased DiscoveRx KINOMEscan
Nature of the experiment: KINOMEscan. In kind it is binding. Particulars: read-out: % Ctrl.

Structures are written as SMILES.

T5 sequence (Q13131 whole entry): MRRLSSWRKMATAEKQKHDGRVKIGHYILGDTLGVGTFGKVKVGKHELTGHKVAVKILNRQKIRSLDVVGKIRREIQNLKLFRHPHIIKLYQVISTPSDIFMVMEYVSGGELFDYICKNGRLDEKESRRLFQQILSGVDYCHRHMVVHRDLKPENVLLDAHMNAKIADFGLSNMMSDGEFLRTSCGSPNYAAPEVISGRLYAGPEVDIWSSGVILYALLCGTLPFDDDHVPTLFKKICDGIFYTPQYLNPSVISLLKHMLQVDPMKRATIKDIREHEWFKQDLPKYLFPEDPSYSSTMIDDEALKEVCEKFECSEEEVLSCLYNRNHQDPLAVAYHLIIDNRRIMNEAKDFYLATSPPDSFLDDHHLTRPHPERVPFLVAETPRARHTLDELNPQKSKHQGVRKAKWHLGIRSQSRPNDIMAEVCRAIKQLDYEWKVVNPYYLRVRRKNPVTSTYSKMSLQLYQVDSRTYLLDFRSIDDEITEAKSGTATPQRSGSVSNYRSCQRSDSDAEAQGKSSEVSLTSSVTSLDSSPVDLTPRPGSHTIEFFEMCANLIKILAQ
T20 sequence (P42338 whole entry): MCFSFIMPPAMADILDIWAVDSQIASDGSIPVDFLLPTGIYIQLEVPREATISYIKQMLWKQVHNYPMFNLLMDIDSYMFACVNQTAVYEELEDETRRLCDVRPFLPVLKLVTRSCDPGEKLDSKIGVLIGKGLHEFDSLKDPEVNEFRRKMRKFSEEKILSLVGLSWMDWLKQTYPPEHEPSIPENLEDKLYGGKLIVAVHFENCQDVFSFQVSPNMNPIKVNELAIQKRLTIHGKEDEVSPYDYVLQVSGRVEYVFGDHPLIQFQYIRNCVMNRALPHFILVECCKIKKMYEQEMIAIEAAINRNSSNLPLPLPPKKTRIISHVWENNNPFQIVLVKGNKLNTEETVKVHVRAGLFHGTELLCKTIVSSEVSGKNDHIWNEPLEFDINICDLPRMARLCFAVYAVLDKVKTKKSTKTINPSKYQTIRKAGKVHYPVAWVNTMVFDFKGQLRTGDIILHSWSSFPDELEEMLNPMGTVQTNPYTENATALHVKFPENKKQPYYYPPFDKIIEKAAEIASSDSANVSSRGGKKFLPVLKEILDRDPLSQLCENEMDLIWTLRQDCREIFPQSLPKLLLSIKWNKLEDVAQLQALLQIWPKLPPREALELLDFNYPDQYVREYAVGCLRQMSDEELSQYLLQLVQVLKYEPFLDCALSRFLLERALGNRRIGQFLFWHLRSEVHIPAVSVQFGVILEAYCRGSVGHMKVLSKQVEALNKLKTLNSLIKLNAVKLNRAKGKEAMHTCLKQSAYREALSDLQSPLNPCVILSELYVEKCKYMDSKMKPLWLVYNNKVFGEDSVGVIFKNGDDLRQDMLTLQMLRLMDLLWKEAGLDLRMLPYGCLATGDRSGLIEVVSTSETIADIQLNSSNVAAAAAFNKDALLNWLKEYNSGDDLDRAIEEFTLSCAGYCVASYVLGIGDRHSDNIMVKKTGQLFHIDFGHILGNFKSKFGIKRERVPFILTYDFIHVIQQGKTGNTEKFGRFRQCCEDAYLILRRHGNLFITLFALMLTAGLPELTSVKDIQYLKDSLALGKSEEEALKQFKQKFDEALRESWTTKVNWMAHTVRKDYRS
T19 sequence (Q13705 19-512): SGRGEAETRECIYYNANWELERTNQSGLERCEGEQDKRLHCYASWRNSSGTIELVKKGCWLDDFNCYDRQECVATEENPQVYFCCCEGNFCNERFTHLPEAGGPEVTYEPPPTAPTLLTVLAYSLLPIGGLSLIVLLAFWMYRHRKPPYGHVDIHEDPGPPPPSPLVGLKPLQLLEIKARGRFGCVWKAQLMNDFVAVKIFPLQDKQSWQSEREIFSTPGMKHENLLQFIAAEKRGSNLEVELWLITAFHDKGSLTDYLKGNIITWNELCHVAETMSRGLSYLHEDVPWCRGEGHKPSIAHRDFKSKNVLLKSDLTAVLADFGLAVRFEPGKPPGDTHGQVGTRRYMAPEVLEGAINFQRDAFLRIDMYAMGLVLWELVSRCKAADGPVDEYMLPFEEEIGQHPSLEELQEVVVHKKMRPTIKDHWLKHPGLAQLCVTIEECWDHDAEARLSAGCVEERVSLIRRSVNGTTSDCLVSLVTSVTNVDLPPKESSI
T25 sequence (O43293 whole entry): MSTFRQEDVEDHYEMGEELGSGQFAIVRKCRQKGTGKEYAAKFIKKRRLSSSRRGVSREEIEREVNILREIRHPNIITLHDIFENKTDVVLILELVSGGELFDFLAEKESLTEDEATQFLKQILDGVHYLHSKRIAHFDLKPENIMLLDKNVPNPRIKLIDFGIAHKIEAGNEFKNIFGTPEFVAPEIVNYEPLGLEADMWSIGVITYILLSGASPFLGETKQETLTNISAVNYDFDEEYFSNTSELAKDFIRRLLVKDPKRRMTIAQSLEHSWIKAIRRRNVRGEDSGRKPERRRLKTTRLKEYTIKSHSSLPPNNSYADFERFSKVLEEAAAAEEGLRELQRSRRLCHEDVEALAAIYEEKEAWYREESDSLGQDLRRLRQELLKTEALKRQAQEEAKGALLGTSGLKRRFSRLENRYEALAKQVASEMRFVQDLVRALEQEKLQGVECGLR
T29 sequence (Q9Y2U5 whole entry): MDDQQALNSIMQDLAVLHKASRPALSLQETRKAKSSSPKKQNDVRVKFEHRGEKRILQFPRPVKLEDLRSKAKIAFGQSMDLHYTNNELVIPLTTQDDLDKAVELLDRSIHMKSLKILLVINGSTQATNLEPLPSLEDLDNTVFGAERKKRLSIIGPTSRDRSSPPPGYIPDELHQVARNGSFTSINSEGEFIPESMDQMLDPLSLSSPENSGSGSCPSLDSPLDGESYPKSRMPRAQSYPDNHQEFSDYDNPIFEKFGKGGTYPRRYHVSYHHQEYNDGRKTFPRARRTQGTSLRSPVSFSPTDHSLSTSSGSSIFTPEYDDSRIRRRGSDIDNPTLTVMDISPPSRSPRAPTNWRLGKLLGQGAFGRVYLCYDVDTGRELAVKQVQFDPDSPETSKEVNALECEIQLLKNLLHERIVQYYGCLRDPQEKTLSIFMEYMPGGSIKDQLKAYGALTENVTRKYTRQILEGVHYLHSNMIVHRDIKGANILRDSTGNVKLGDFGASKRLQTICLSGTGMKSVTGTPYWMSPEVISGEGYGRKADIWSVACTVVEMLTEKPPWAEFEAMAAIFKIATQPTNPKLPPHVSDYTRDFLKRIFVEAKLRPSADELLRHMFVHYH
T39 sequence (P0C1S8 whole entry): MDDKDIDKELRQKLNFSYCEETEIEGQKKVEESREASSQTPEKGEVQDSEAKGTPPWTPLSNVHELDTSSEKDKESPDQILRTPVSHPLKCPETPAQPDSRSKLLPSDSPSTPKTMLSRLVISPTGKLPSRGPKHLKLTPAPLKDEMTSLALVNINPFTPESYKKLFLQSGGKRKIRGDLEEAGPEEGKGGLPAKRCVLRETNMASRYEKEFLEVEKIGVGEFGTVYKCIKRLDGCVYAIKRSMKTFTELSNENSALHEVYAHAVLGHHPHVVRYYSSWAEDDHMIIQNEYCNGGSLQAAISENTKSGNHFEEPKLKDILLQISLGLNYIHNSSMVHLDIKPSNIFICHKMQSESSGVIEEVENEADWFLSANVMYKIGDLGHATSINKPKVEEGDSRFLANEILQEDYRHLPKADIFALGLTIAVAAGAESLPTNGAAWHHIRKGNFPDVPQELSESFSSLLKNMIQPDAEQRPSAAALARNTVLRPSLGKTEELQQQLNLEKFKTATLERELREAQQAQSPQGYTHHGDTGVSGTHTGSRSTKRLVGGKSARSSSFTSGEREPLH
T24 sequence (P37173 23-567): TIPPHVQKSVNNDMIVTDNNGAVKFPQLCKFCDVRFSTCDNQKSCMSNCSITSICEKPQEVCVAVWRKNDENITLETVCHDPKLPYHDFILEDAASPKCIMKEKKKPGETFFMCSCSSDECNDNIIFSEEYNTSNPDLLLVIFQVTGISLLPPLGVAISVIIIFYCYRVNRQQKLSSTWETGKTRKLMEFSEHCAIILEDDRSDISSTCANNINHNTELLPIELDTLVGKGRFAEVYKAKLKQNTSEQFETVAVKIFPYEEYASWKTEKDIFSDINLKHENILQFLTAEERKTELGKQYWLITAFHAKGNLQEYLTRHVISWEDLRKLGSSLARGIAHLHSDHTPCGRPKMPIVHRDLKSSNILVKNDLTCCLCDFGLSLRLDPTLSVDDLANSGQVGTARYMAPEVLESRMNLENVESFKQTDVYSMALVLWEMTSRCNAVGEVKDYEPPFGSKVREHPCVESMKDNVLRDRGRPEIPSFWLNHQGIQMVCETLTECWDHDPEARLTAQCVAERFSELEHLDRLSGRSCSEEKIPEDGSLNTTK
T1 sequence (Q9Y243 whole entry): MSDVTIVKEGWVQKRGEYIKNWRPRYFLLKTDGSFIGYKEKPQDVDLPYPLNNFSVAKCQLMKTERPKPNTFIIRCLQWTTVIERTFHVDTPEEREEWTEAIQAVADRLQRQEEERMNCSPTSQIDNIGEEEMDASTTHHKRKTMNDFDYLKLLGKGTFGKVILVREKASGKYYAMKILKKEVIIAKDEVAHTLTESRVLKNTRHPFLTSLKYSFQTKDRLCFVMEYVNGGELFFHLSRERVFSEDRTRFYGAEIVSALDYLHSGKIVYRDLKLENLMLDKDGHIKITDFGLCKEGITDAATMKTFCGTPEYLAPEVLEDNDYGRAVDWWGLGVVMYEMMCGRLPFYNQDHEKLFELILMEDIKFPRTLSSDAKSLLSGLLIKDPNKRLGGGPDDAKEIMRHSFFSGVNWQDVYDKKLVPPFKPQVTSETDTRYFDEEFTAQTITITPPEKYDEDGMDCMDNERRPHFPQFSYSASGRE

Consider `Fc1ccc(-n2cc(CCCCN3CCC4(CC3)OCc3ccccc34)c3ccccc32)cc1` [siramesine], for which, in experiment [1], the efficacy in vivo entry was “ineffective in vivo”.
Turning to `CN1CCC(CNc2ccc3ncc(C(=O)Nc4cccc(OC(F)(F)F)c4)n3n2)CC1` [Cpd 2], the remaining binding at 1 µM at AKT3 is 100%; at GRK1, 86%; at ABL1(H396P)-P, 100%; at SYK it was 94%; on AMPK-alpha1, 100%; at CSNK1G2, 100%. Also, the remaining binding at 1 µM on FGFR2 worked out at 100%; at CASK, 93%; at FLT3, 92%; on CDKL1, 97%; at PIKFYVE, 45%; on PDGFRB, 92%. The remaining binding at 1 µM came to 93% on LTK; 73% at GCN2(KD2,S808G); 100% at FGFR1; 100% on ERK4; 100% at ALK; 100% at CSNK1G3. Further, the remaining binding at 1 µM on ACVR2B was 100%; on PIK3CB it was 91%; on PDPK1, 100%; at EPHB6, 92%; on WEE1, 96%; at TGFBR2, 100%. Besides, the remaining binding at 1 µM was determined as 5% at PIM1; 75% at DAPK3; 79% on ERN1; 99% at CDC2L2; 99% at NEK1; 92% on MAP3K2. The remaining binding at 1 µM is 80% on PRKCD; 97% on DMPK2; 70% at TAK1; 88% on KIT(L576P); 100% at FAK; 100% at ERBB4. The remaining binding at 1 µM stood at 100% on PRKX; 97% on IKK-alpha; 79% on NEK11; 92% at WEE2; 100% on ABL1(Q252H)-P; 84% on RSK4(KD2-C-t.).
